Data published in patent US20170119020A1, “METHOD OF FEEDING AN ANIMAL” (CARGILL, INCORPORATED, priority 2014, published 2017).

Experiments:
[1] = tested on: egg yolk of Ross 308 breeders; assay: Egg yolk ORAC and vitamin E analysis (Example 4); type: in vivo, chicken
From the text: Eggs were shipped to University Gent, Belgium, for ORAC and vitamin E analysis on the yolk. The method used for the determination of polyphenols was the Folin-Ciocalteu Methodology which is described in the European Pharmacopoeia, using a spectrophotometry UV-visible. For the ORAC analysis the method was used as described by Ou et al. “Development and validation of an improved oxygen radical absorbance capacity assay using fluorescein as the fluorescent probe,” Journal of Agricultural and Food Chemistry 49: 4619-4626, (2001) and Huang et al. “High-throughput assay of oxygen radical absorbance capacity (ORAC) using a multichannel liquid handling system coupled with a microplate fluorescence reader in 96-well format,” Journal of Agricultural and Food Chemistry 50: 4437-4444, (2002).

[2] = tested on: livers of Ross 308 chicks; assay: Chick liver SOD and GSSG analysis, OXISELECT kits (Example 5); type: in vivo, chicken; settings: breeder diet
Procedure: Group egg weights were recorded at E0. At E7 and E18, all eggs were candled and empty eggs or eggs containing dead embryos were removed (early dead E0-E7, mid dead E8-E18). At E18 eggs were transferred to the hatching baskets after candling. At hatch (E21) the number of dead chickens, late dead embryos (E19-E21) and pipped eggs were recorded. The number of hatched chickens was recorded per replicate, as well as average chick weight. Hatchability was calculated as percentage of total eggs set. Sex was determined by feather sexing, female chickens were euthanized by CO2 and disposed according to local regulations. Per experimental unit, five male chickens were selected for the grow-out period and allocated to broiler grower pens. Only chickens with an average body weight, completely dry, showing active movement and with a good navel score were selected. After this selection one male chicken per experimental unit was selected for dissection. Sample chickens were individually weighed and killed by cervical dislocation to measure remaining yolk-sac weights, yolk-free body mass (“YFBM”), liver weight, chick length, and shank length of both shanks. The livers were immediately placed on dry ice and after dissection stored at −20° C. for further analysis (“SOD and GSSG”). Relative asymmetry was calculated according to the following formula: […]
Furthermore, no treatment effects were found on several chick quality parameters (YFBM, chick length, and relative asymmetry). OXISELECT Superoxide Dismutase Activity Assay (“SOD”) and OXISELECT Total Glutathione (GSSG/GSH) Assay (“GSSG”) kits, available commercially from Cell Biolabs, Inc., San Diego, Calif., USA, were used to analyze chick livers.

sows and piglets [3] = assay: Content of vitamins E and A in serum of sows and piglets, HPLC (Example 10); type: in vivo, pig; settings: for Vitamin A in serum of piglets / Vitamin E in serum of piglets: piglets at 21 days
From the text: (§1) The performance following criteria were monitored during the trial: (i) Sows response criteria (actual parity, farrowing rate, culled sows—number and reasons, wean-to-mating interval, farrowing rate in the next cycle); (ii) litter response criteria (number of piglets, total, alive, stillborn, mummies; weight of piglets and litters; survival). The following biochemical (blood) criteria were monitored during the trial for the sows (mating, farrowing and weaning), piglets 21st day: (i) glutathione peroxidase (GPx) activity; (ii) superoxide dismutase (SOD) activity; (iii) total antioxidant status (TAS); (iv) vitamin E content; (v) vitamin A content.
(§2) To determine the oxidative status, the blood samples were collected from sows and piglets into tubes with lithium anticoagulant—received whole blood for analysis. At the same time blood samples were taken for blood clot. They were centrifuged (1500 rpm, 15 Temp. 4° C.) and obtained serum was pipetted into separate tubes.
(§3) The content of the TAS (total antioxidant status) were determined using the Antioxidant assay kit (Cat. No CS0790), the activity of SOD (superoxide dismutase) was determined using SOD determination kit 19160, the activity of GPx (glutathione Peroxide assai Cellular Activity Kit) Cat. No CGP1. The content of vitamins A and E by McMurray and Blanchflower 1979 (Journal of Chromatography 178, 525-531.). TAS
Serum samples (1 ml) was deproteinized with anhydrous ethanol (1 ml), extracted with 5 ml of n-hexane (Vortex 5′), then centrifuged (3000 rpm, 10′, temp. 4° C.). The resulting 4 ml of the supernatant were evaporated to dryness under nitrogen, and then dissolved in 1 ml of 96% ethanol and analyzed by high performance liquid chromatography (HPLC).
The contents of retinol and tocopherol was determined by reversed-phase high performance liquid chromatography (HPLC) with chromatograph SHIMADZU. Nucleosil C18 column is used, the carrier phase was methanol-water (95:5, v: v). The measurement was performed using a UV detector at a wavelength of 326 nm to determine the amount of retinol and a fluorescence detector (excitation wavelength—295 nm, emission wavelength—330 nM) to determine the tocopherol content. The concentration of retinol and tocopherol were calculated on the basis of the peak external standards (Sigma-Aldrich (□)-a-Tocopherol, Retinol Vitamin-A-alcohol).

sows and piglets [4] = assay: Glutathione peroxidase (GPx) activity in blood of sows and piglets (Example 10); type: in vivo, pig; settings: for Activity of glutathione peroxidase (GPx) in blood of piglets: piglets at 21 days
From the text: as §1, §2
In studies of oxidative status of sows and piglets were used suitable to each of the indicators, the reagent kits from Sigma-Aldrich. Determination was made in accordance with the descriptions of the rules and procedures specified by the manufacturer.
as §3
Whole blood samples (blood collection from animals to tubes with lithium anticoagulant) in duplicate (10 pl) was added to […] of buffer (pH 8), mixed (vortex—10′), then added 10 pl of a 70% aqueous solution of tert-butyl Hydroperoxide, mixed (by inversion) and the absorbance was measured immediately in a spectrophotometer at a wavelength of 340 nm. After 1 minute the measurement was repeated. Simultaneously blank samples (reagent) were performed and a calibration curve based on GPx serial dilutions in the range of 20 to 50 U/ml. The decrease in NADPH absorbance (during 1 minute) measured at 340 nm during the oxidation of NADPH to NADP+ is indicative of GPx activity.

[5] = Breeding, Group 2: vitamin E 50/75 mg/kg diet
[6] = Breeding, Group 3: vitamin E 100/150 mg/kg diet
[7] = Farrowing, Group 2: vitamin E 50/75 mg/kg diet
[8] = Farrowing, Group 3: vitamin E 100/150 mg/kg diet
[9] = Weaning, Group 2: vitamin E 50/75 mg/kg diet
[10] = Weaning, Group 3: vitamin E 100/150 mg/kg diet
[11] = Group 2: vitamin E 50/75 mg/kg sow diet
[12] = Group 3: vitamin E 100/150 mg/kg sow diet

## Cc1c(C)c2c(c(C)c1O)CCC(C)(CCCC(C)CCCC(C)CCCC(C)C)O2 (racemic) [Vitamin E, DL-α-tocopherol]
[1]; in vivo
  proportionality index for transfer of vitamin E from the diet to the egg: around 50%
[1]; vitamin E equivalence 80 ppm
  ORAC of egg yolk: 33.8 µmol TE/g
  Vitamin E of egg yolk: 139.7 µg […]tocoferol/g
[1]; vitamin E equivalence 160 ppm
  ORAC of egg yolk: 33.5 µmol TE/g
  Vitamin E of egg yolk: 231.6 µg […]tocoferol/g
[2]; vitamin E equivalence 80 ppm
  GSSG: 4.27 µM
  SOD units: 0.776 units
[2]; vitamin E equivalence 160 ppm
  GSSG: 4.48 µM
  SOD units: 0.777 units
Sows and piglets [3]; [5]
  Content of Vitamin A in the serum of sows: 0.15 µg/mL
  Content of Vitamin E in the serum of sows: 1.09 µg/mL
Sows and piglets [3]; [6]
  Content of Vitamin A in the serum of sows: 0.16 µg/mL
  Content of Vitamin E in the serum of sows: 1.11 µg/mL
Sows and piglets [3]; [7]
  Content of Vitamin A in the serum of sows: 0.11 µg/mL
  Content of Vitamin E in the serum of sows: 0.74 µg/mL
Sows and piglets [3]; [8]
  Content of Vitamin A in the serum of sows: 0.15 µg/mL
  Content of Vitamin E in the serum of sows: 1.16 µg/mL
Sows and piglets [3]; P<0.001
  piglet serum a-tocopherol concentrations, lactation sows fed 150 mg/kg versus 75 mg/kg vitamin E: higher
Sows and piglets [3]; [9]
  Content of Vitamin A in the serum of sows: 0.15 µg/mL
  Content of Vitamin E in the serum of sows: 1.02 µg/mL
Sows and piglets [3]; [10]
  Content of Vitamin A in the serum of sows: 0.15 µg/mL
  Content of Vitamin E in the serum of sows: 1.13 µg/mL
Sows and piglets [3]; gestation and lactation, P<0.001
  sow serum a-tocopherol (vitamin E) concentrations when vitamin E was added to the sow diets: higher
Sows and piglets [3]; [11]
  Vitamin A in serum of piglets: 0.16 µg/mL
  Vitamin E in serum of piglets: 1.41 µg/mL
Sows and piglets [3]; [12]
  Vitamin A in serum of piglets: 0.2 µg/mL
  Vitamin E in serum of piglets: 1.61 µg/mL
Sows and piglets [4]; [5]
  Activity of glutathione peroxidase (GPx) in blood of sows: 37.73 U/ml
Sows and piglets [4]; [6]
  Activity of glutathione peroxidase (GPx) in blood of sows: 38.85 U/ml
Sows and piglets [4]; [7]
  Activity of glutathione peroxidase (GPx) in blood of sows: 32.77^C U/ml
Sows and piglets [4]; [8]
  Activity of glutathione peroxidase (GPx) in blood of sows: 37.64^B U/ml
Sows and piglets [4]; [9]
  Activity of glutathione peroxidase (GPx) in blood of sows: 34.78^C U/ml
Sows and piglets [4]; [10]
  Activity of glutathione peroxidase (GPx) in blood of sows: 36.48^B U/ml
Sows and piglets [4]; [11]
  Activity of glutathione peroxidase (GPx) in blood of piglets: 29.12^B U/ml
Sows and piglets [4]; [12]
  Activity of glutathione peroxidase (GPx) in blood of piglets: 29.91^B U/ml
